Several values for one entry are separate records, joined by “and”; a condition that tells them apart may be missing. Identical values can stand only once.
How the values were obtained:
[1] = Clinical pharmacokinetics, 25 and 75 mg, compared to Adderall XR and Dexedrine Spansule; conditions: for Tmax: L-lysine-d-amphetamine intact conjugate Tmax
[2] = Stability under concentrated conditions (concentrated HCl, 10 N NaOH, elevated temperature)
[3] = Oral dose-escalation abuse liability study (pharmacokinetics) in adults with stimulant abuse history
[4] = human, in vivo, po, 75 mg, L-lysine-d-amphetamine intact conjugate concentration, oral 75 mg L-lysine-d-amphetamine, individual subjects
[5] = human, in vivo, po, 75 mg, L-lysine-d-amphetamine intact conjugate concentration, oral 75 mg L-lysine-d-amphetamine, mean
[6] = human, oral 25 mg L-lysine-d-amphetamine, individual subjects
[7] = human, oral 75 mg L-lysine-d-amphetamine, individual subjects
[8] = 10 N NaOH, elevated temperature
[9] = conc. HCl, about 90° C. for 1 hour, 0.4 mg/mL

SMILES: CC(Cc1ccccc1)NC(=O)C(N)CCCCN [L-lysine-d-amphetamine, 2,6-diaminohexanoic acid-(1-methyl-2-phenylethyl)-amide]
- half-life ([1]; human, in vivo, po, 75 mg, L-lysine-d-amphetamine intact conjugate T1/2, human, oral 75 mg L-lysine-d-amphetamine, mean): 0.534 h
- Tmax ([1]; human, in vivo, po, 75 mg, oral 75 mg L-lysine-d-amphetamine, individual subjects): 1 h
- Tmax ([1]; human, in vivo, po, 75 mg, oral 75 mg L-lysine-d-amphetamine, mean): 1.05 h
- concentration at 0 h [1, 4]: 0 µg/mL
- concentration at 0 h [1, 5]: 0 µg/mL
- concentration at 0.5 h ([1]; human, in vivo, po, 75 mg, L-lysine-d-amphetamine intact conjugate concentration, oral 75 mg L-lysine-d-amphetamine, 0.5 h, mean): 0.0205 µg/mL
- concentration at 1 h ([1]; human, in vivo, po, 75 mg, L-lysine-d-amphetamine intact conjugate concentration, oral 75 mg L-lysine-d-amphetamine, 1 h, mean): 0.053 µg/mL
- concentration at 2 h ([1]; human, in vivo, po, 75 mg, L-lysine-d-amphetamine intact conjugate concentration, oral 75 mg L-lysine-d-amphetamine, 2 h, mean): 0.0091 µg/mL
- concentration at 3 h ([1]; human, in vivo, po, 75 mg, L-lysine-d-amphetamine intact conjugate concentration, oral 75 mg L-lysine-d-amphetamine, 3 h, mean): 0.0026 µg/mL
- concentration at 4 h ([1]; human, in vivo, po, 75 mg, L-lysine-d-amphetamine intact conjugate concentration, oral 75 mg L-lysine-d-amphetamine, 4 h, mean): 0.0008 µg/mL
- concentration at 5 h ([1]; human, in vivo, po, 75 mg, L-lysine-d-amphetamine intact conjugate concentration, oral 75 mg L-lysine-d-amphetamine, 5 h, individual subjects): 0 µg/mL
- concentration at 5 h ([1]; human, in vivo, po, 75 mg, L-lysine-d-amphetamine intact conjugate concentration, oral 75 mg L-lysine-d-amphetamine, 5 h, mean): 0 µg/mL
- concentration at 6 h ([1]; human, in vivo, po, 75 mg, L-lysine-d-amphetamine intact conjugate concentration, oral 75 mg L-lysine-d-amphetamine, 6 h, individual subjects): 0 µg/mL
- concentration at 6 h ([1]; human, in vivo, po, 75 mg, L-lysine-d-amphetamine intact conjugate concentration, oral 75 mg L-lysine-d-amphetamine, 6 h, mean): 0 µg/mL
- concentration at 7 h ([1]; human, in vivo, po, 75 mg, L-lysine-d-amphetamine intact conjugate concentration, oral 75 mg L-lysine-d-amphetamine, 7 h, individual subjects): 0 µg/mL
- concentration at 7 h ([1]; human, in vivo, po, 75 mg, L-lysine-d-amphetamine intact conjugate concentration, oral 75 mg L-lysine-d-amphetamine, 7 h, mean): 0 µg/mL
- concentration at 8 h ([1]; human, in vivo, po, 75 mg, L-lysine-d-amphetamine intact conjugate concentration, oral 75 mg L-lysine-d-amphetamine, 8 h, individual subjects): 0 µg/mL
- concentration at 8 h ([1]; human, in vivo, po, 75 mg, L-lysine-d-amphetamine intact conjugate concentration, oral 75 mg L-lysine-d-amphetamine, 8 h, mean): 0 µg/mL
- concentration at 10 h ([1]; human, in vivo, po, 75 mg, L-lysine-d-amphetamine intact conjugate concentration, oral 75 mg L-lysine-d-amphetamine, 10 h, individual subjects): 0 µg/mL
- concentration at 10 h ([1]; human, in vivo, po, 75 mg, L-lysine-d-amphetamine intact conjugate concentration, oral 75 mg L-lysine-d-amphetamine, 10 h, mean): 0 µg/mL
- concentration at 12 h ([1]; human, in vivo, po, 75 mg, L-lysine-d-amphetamine intact conjugate concentration, oral 75 mg L-lysine-d-amphetamine, 12 h, individual subjects): 0 µg/mL
- concentration at 12 h ([1]; human, in vivo, po, 75 mg, L-lysine-d-amphetamine intact conjugate concentration, oral 75 mg L-lysine-d-amphetamine, 12 h, mean): 0 µg/mL
- concentration at 16 h [1, 4]: 0 µg/mL
- concentration at 16 h [1, 5]: 0 µg/mL
- concentration at 24 h [1, 4]: 0 µg/mL
- concentration at 24 h [1, 5]: 0 µg/mL
- concentration at 48 h [1, 4]: 0 µg/mL
- concentration at 48 h [1, 5]: 0 µg/mL
- concentration at 72 h [1, 4]: 0 µg/mL
- concentration at 72 h [1, 5]: 0 µg/mL
- L-lysine-d-amphetamine intact conjugate concentration ([1]; human, oral 25 mg L-lysine-d-amphetamine, 1 h, individual subjects): 9.2 ng/mL and 10.9 ng/mL and 11.2 ng/mL and 15.2 ng/mL and 12.5 ng/mL and 9.1 ng/mL and 2.7 ng/mL and 20.1 ng/mL and 10.5 ng/mL and 10.8 ng/mL
- L-lysine-d-amphetamine intact conjugate concentration ([1]; human, oral 25 mg L-lysine-d-amphetamine, 2 h, individual subjects): 2.1 ng/mL and 3.1 ng/mL and 1.4 ng/mL and 2.5 ng/mL and 2.9 ng/mL and 1.9 ng/mL and 4.0 ng/mL and 2.3 ng/mL and 0 ng/mL and 1.7 ng/mL
- L-lysine-d-amphetamine intact conjugate concentration ([1]; human, oral 25 mg L-lysine-d-amphetamine, 3 h, individual subjects): 0 ng/mL
- L-lysine-d-amphetamine intact conjugate concentration ([1]; human, oral 25 mg L-lysine-d-amphetamine, 4 h, individual subjects): 0 ng/mL
- L-lysine-d-amphetamine intact conjugate concentration ([1]; human, oral 25 mg L-lysine-d-amphetamine, 5 h, individual subjects): 0 ng/mL
- L-lysine-d-amphetamine intact conjugate concentration ([1]; human, oral 25 mg L-lysine-d-amphetamine, 6 h, individual subjects): 0 ng/mL
- L-lysine-d-amphetamine intact conjugate concentration ([1]; human, oral 25 mg L-lysine-d-amphetamine, 7 h, individual subjects): 0 ng/mL
- L-lysine-d-amphetamine intact conjugate concentration ([1]; human, oral 25 mg L-lysine-d-amphetamine, 8 h, individual subjects): 0 ng/mL
- L-lysine-d-amphetamine intact conjugate concentration ([1]; human, oral 25 mg L-lysine-d-amphetamine, 10 h, individual subjects): 0 ng/mL
- L-lysine-d-amphetamine intact conjugate concentration ([1]; human, oral 25 mg L-lysine-d-amphetamine, 12 h, individual subjects): 0 ng/mL
- L-lysine-d-amphetamine intact conjugate AUCinf [1, 6]: 0.01062 µg·h/mL and 0.01283 µg·h/mL and 0.01164 µg·h/mL and 0.01766 µg·h/mL and 0.01265 µg·h/mL and 0.009759 µg·h/mL and 0.01956 µg·h/mL and 0.0133 µg·h/mL
- L-lysine-d-amphetamine intact conjugate AUClast [1, 6]: 0.00918 µg·h/mL and 0.01041 µg·h/mL and 0.01095 µg·h/mL and 0.01631 µg·h/mL and 0.01068 µg·h/mL and 0.008583 µg·h/mL and 0.005439 µg·h/mL and 0.01851 µg·h/mL and 0.01077 µg·h/mL and 0.01235 µg·h/mL
- L-lysine-d-amphetamine intact conjugate Cmax [1, 6]: 0.00918 µg/mL and 0.0109 µg/mL and 0.0112 µg/mL and 0.0152 µg/mL and 0.0125 µg/mL and 0.00905 µg/mL and 0.00618 µg/mL and 0.0201 µg/mL and 0.0105 µg/mL and 0.0108 µg/mL
- L-lysine-d-amphetamine intact conjugate Tmax [1, 6]: 1.5 h
- L-lysine-d-amphetamine intact conjugate AUCinf [1, 7]: 0.0525 µg·h/mL and 0.087 µg·h/mL and 0.045 µg·h/mL and 0.033 µg·h/mL and 0.0449 µg·h/mL and 0.0523 µg·h/mL and 0.0342 µg·h/mL and 0.0314 µg·h/mL and 0.1029 µg·h/mL and 0.1117 µg·h/mL
- L-lysine-d-amphetamine intact conjugate AUClast [1, 7]: 0.0512 µg·h/mL and 0.0861 µg·h/mL and 0.0442 µg·h/mL and 0.032 µg·h/mL and 0.0437 µg·h/mL and 0.0504 µg·h/mL and 0.0309 µg·h/mL and 0.0298 µg·h/mL and 0.1021 µg·h/mL and 0.1108 µg·h/mL
- L-lysine-d-amphetamine intact conjugate Cmax [1, 7]: 0.048 µg/mL and 0.0801 µg/mL and 0.0405 µg/mL and 0.029 µg/mL and 0.0415 µg/mL and 0.0265 µg/mL and 0.0308 µg/mL and 0.0234 µg/mL and 0.127 µg/mL and 0.0889 µg/mL
- L-lysine-d-amphetamine intact conjugate Tmax [1, 7]: 1.5 h
- Intact conjugate as percent of total drug absorption (AUCinf-molar basis) ([1]; humans, oral, 25 mg): 1.6%
- Bioavailability over twelve hours vs Adderall XR® (d-amphetamine plus l-amphetamine levels) ([1]; humans, oral, 75 mg): approximately equivalent
- Bioavailability over twelve hours vs Dexedrine Spansule® ([1]; humans, oral, 75 mg): over twenty percent higher
- Intact conjugate as percent of total drug absorption (AUCinf-molar basis) ([1]; humans, oral, 75 mg): 2.0%
- Bioavailability (AUCinf) of d-amphetamine vs both extended release amphetamine products ([1]; humans, oral, 75 mg vs Adderall XR® 35 mg and Dexedrine Spansule® 30 mg): approximately equivalent
- Time of peak levels of intact conjugate ([1]; humans, oral, 25 and 75 mg): about one hour
- Elimination of intact conjugate ([1]; humans, oral, even at the highest dose): no detectable concentrations present by five hours
- % AUC Lys-Amp (HPLC) [2, 8]: 99 % AUC
- % AUC d-amphetamine (HPLC) [2, 8]: <1 % AUC
- % AUC Lys-Amp (HPLC) [2, 9]: 96 % AUC
- % AUC d-amphetamine (HPLC) [2, 9]: 4 % AUC
- d-amphetamine released under concentrated conditions ([2]; concentrated HCl, about 90° C., 1 hour, HPLC): only a minimal amount
- Adverse reactions ([3]; adults with stimulant abuse, oral, 30-150 mg): mild in severity
- half-life ([3]; human, in vivo, po): 0.44 to 0.76 h

From patent US20090181898A1, “ABUSE-RESISTANT A[…]” (SHIRE LLC, priority 2002, published 2009)
